From ChEMBL document CHEMBL1157993, “Structure-antimutagenic activity relationship study of plicatin B” (J Nat Prod, 1999)

Tests used:
Salmonella typhimurium [1] = experiment: Antimutagenic activity in Salmonella Typhimurium TA100 assessed as inhibition of ethyl methanesulfonate-induced mutation at 3.9 uM treated for 30 mins and measured after 2 days by modified Ames test; format: functional, Salmonella enterica subsp. enterica serovar Typhimurium; conditions: Salmonella enterica
Salmonella typhimurium [2] = experiment: Antimutagenic activity in Salmonella Typhimurium TA100 assessed as inhibition of ethyl methanesulfonate-induced mutation at 31.3 uM treated for 30 mins and measured after 2 days by modified Ames test; format: functional, Salmonella enterica subsp. enterica serovar Typhimurium; conditions: Salmonella enterica
Salmonella typhimurium [3] = experiment: Antimutagenic activity in Salmonella Typhimurium TA100 assessed as inhibition of ethyl methanesulfonate-induced mutation at 7.8 uM treated for 30 mins and measured after 2 days by modified Ames test; format: functional, Salmonella enterica subsp. enterica serovar Typhimurium; conditions: Salmonella enterica
[4] = Cytotoxicity against Salmonella Typhimurium TA100 assessed as maximun non-toxic concentrations after 15 hrs […]; format: organism-based; conditions: salmonella enterica subsp. enterica serovar typhimurium, Salmonella Typhimurium TA100 cells; read-out: Activity
Salmonella typhimurium [5] = experiment: Antimutagenic activity in Salmonella Typhimurium TA100 assessed as inhibition of ethyl methanesulfonate-induced mutation at 3.9 to 125 uM treated for 30 mins and measured after 2 days by modified Ames test; format: functional, Salmonella enterica subsp. enterica serovar Typhimurium
Salmonella typhimurium [6] = experiment: Antimutagenic activity in Salmonella Typhimurium TA100 assessed as inhibition of ethyl methanesulfonate-induced mutation at 25 ug/mL treated for 30 mins and measured after 2 days by modified Ames test; format: functional, Salmonella enterica subsp. enterica serovar Typhimurium; conditions: Salmonella enterica
Salmonella typhimurium [7] = experiment: Antimutagenic activity in Salmonella Typhimurium TA100 assessed as inhibition of ethyl methanesulfonate-induced mutation at 125 uM treated for 30 mins and measured after 2 days by modified Ames test; format: functional, Salmonella enterica subsp. enterica serovar Typhimurium; conditions: Salmonella enterica
Salmonella typhimurium [8] = experiment: Antimutagenic activity in Salmonella Typhimurium TA100 assessed as inhibition of ethyl methanesulfonate-induced mutation at 15.6 ug/mL treated for 30 mins and measured after 2 days by modified Ames test; format: functional, Salmonella enterica subsp. enterica serovar Typhimurium; conditions: Salmonella enterica
Salmonella typhimurium [9] = experiment: Antimutagenic activity in Salmonella Typhimurium TA100 assessed as inhibition of ethyl methanesulfonate-induced mutation at 82.5 uM treated for 30 mins and measured after 2 days by modified Ames test; format: functional, Salmonella enterica subsp. enterica serovar Typhimurium; conditions: Salmonella enterica

Row | Compound | inhibition at 3.9 µM (Salmonella typhimurium [1]) [%] | inhibition at 7.8 µM (Salmonella typhimurium [3]) [%] | also measured
1 | CC(C)=CCc1cc(/C=C/CO)ccc1O | 20.2 | 27.1 | inhibition at 31.3 µM (Salmonella typhimurium [2]): 36.8%
2 | COC(=O)CCc1ccc(O)c(CC=C(C)C)c1 | 25.2 | 38.5 | inhibition at 31.3 µM (Salmonella typhimurium [2]): 46.8%; MNTC at 15 h [4]: 31.3 µM
3 | COC(=O)CCc1ccc(O)cc1 [4-HYDROXYHYDROCINNAMIC ACID METHYL ESTER] | – | – | inhibition (INH) (Salmonella typhimurium [5]): 0%
4 | O=C/C=C/c1ccccc1 [CINNAMALDEHYDE] | – | – | MNTC at 15 h [4]: 25 µg/mL; inhibition at 25 µg/mL (Salmonella typhimurium [6]): 30%
5 | O=C(O)/C=C/c1ccc(O)cc1 [COUMARIC ACID] | 11.2 | 13.6 | inhibition at 125 µM (Salmonella typhimurium [7]): 49.8%
6 | CC(C)=CCc1cc(/C=C/C(=O)O)ccc1O [DRUPANIN] | 0.3 | 0.6 | inhibition at 15.6 µg/mL (Salmonella typhimurium [8]): 12%
7 | COC(=O)/C=C/c1ccc(O)cc1 [METHYL P-HYDROXYCINNAMATE] | 0 | 0.9 | inhibition at 82.5 µM (Salmonella typhimurium [9]): 7.6%
8 | COC(=O)/C=C/c1ccc(OC)c(CC=C(C)C)c1 [PALICATIN B METHYL ETHER] | 13.2 | 21.5 | –
9 | COC(=O)/C=C/c1ccc(O)c(CC=C(C)C)c1 [PLICATIN B] | 25.4 | 30.2 | –
